Read-outs that look alike come from different tables or passages of the source.
Biological target: T1, human cGAS (residues 161-522) (Homo sapiens, UniProt Q8N884)
T1 construct: Recombinantly expressed purified human cGAS (residues 161-522) was used at 25 nM; made in house
Test: cGAS Activity Assay—Malachite Green
Format: biochemical
Protocol: Compounds were tested for cGAS inhibition in a coupled enzymatic assay based on Phosphate detection by Malachite Green. Final assay conditions were 20 mM TRIS pH 7.5 (Applichem), 5 mM MgCl2 (Sigma) and 0.01% BSA (Sigma) supplemented with 80 μM ATP (Sigma), 80 μM GTP (Sigma) and 100 nM Interferon Stimulating DNA (ISD) (Microsynth).
1 μL of DMSO dilution series was transferred to 32.3 μL reaction buffer, mixed by pipetting up/down, spun for 1 minute at 3000 rpm and was visually inspected for precipitation. 5 μL of 3-fold enzyme stock solution were transferred to an empty 384-well Black/Clear Flat Bottom Polystyrene NBS (Corning) rows 3-24. Rows 1-2 were filled with assay buffer. Plates were spun 10 seconds at 1000 rpm (164×g). 5 μL of compound intermediate dilution was added and mixed by pipetting up/down to rows 3-24. Rows 1-2 were filled with 3.1% DMSO assay buffer. Plates were spun 10 seconds at 1000 rpm (164×g). 5 μL 3-fold Nucleotide/DNA mix was added to all wells to start the reaction. Plates were spun 10 seconds at 1000 rpm (164×g) and incubated for 4 hour at room temperature (RT) in the dark. 5 μL 4 U/mL PPase (Sigma) were added to all wells. Plates spun 10 seconds at 1000 rpm (164×g). 10 μL BioMol green Solution (Enzo Life Sciences) was added to all wells. Plates spun 10 seconds at 1000 rpm (164×g) and incubated 30 minutes at RT in the dark. Absorbance data was collected 620 nm on an EnVision Multilable Reader (Perkin Elmer) and the following measurement settings were used: excitation filter photometric was 620 nm; excitation from the top; measurement height was 1 mm; number of flashes was 30; number of flashes integrated was 1.
All plates are checked for abnormalities and outliers in the Blank Control (no protein, row 1) and the Neutral Control (no compound, row 2) are excluded using the 3*SD rule.
Table 5 provides IC50 values (μM) for cGAS inhibition obtained for particular examples of the present invention as measured by the above-described assay.

[1] = cGAS inhibition, 25 nM cGAS, 80 μM ATP, 80 μM GTP, 100 nM ISD, 4 hour at RT, Malachite Green phosphate detection, read-out: IC50 cGAS

T1 sequence (Q8N884 161-522): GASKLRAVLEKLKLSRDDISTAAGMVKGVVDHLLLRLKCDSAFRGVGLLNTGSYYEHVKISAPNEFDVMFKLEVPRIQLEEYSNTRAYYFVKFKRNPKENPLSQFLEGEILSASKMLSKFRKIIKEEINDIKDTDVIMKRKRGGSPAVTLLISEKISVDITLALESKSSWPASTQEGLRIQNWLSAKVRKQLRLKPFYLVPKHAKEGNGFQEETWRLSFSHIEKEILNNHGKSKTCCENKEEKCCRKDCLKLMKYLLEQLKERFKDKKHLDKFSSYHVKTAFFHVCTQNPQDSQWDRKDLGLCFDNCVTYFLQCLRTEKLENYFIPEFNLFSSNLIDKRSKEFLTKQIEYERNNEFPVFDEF

| SMILES | IC50 [1] [µM] | IC50 [µM] |
| --- | --- | --- |
| CCCc1cc(=O)n2nc(NCc3ccc(OC)cc3Cl)nc2[nH]1 [Example 69, 2-[(2-chloro-4-methoxyphen-yl)methylamino]-5-propyl-4H-[1,2,4]triazolo[1,5-a]pyrimidin-7-one] | 9.51 |  |
| CCCc1cc(=O)n2nc(NCc3ccc(OC)cc3C)nc2[nH]1 [Example 70, 2-[(4-methoxy-2-methylphen-yl)methylamino]-5-propyl-4H-[1,2,4]triazolo[1,5-a]pyrimidin-7-one] | 3.64 |  |
| O=c1cc(Cc2ccccc2)[nH]c2nc(NCc3ccc(Cl)cc3Cl)nn12 [Example 71, 5-benzyl-2-[(2,4-dichlorophen-yl)methylamino]-4H-[1,2,4]-triazolo[1,5-a]pyrimidin-7-one] | 1.76 |  |
| O=c1cc(CCc2ccccc2)[nH]c2nc(NCc3ccc(Cl)cc3Cl)nn12 [Example 72, 2-[(2,4-dichlorophenyl)meth-ylamino]-5-(2-phenylethyl)-4H-[1,2,4]triazolo[1,5-a]-pyrimidin-7-one] |  | 2.11 |
| CC(C)c1ccc(CNc2nc3[nH]c(Cc4ccccc4)cc(=O)n3n2)cc1 [Example 73, 5-benzyl-2-[(4-isopropylphen-yl)methylamino]-4H-[1,2,4]-triazolo[1,5-a]pyrimidin-7-one] |  | 2.7 |
| CCCc1cc(=O)n2nc(NCc3nc4ccccc4o3)nc2[nH]1 [Example 74, 2-(1,3-benzoxazol-2-ylmethyl-amino)-5-propyl-4H-[1,2,4]-triazolo[1,5-a]pyrimidin-7-one] | 4.56 |  |
| O=c1cc(C(F)(F)F)[nH]c2nc(NCc3ccc(-c4ccccc4)cc3)nn12 [Example 75, 2-[(4-phenylphenyl)methyl-amino]-5-(trifluoromethyl)-4H-[1,2,4]triazolo[1,5-a]pyrimidin-7-one] | 0.827 |  |
| CCCc1cc(=O)n2nc(NC(C)c3ccc(Cl)cc3Cl)nc2[nH]1 (centres unmarked) [Example 76, 2-[1-(2,4-dichlorophenyl)ethyl-amino]-5-propyl-4H-[1,2,4]-triazolo[1,5-a]pyrimidin-7-one] | 6.72 |  |
| CC(Nc1nc2[nH]c(C(F)(F)F)cc(=O)n2n1)c1ccc(Cl)cc1Cl (centres unmarked) [Example 77, 2-[1-(2,4-dichlorophenyl)ethyl-amino]-5-(trifluoromethyl)-4H-[1,2,4]triazolo[1,5-a]pyrimidin-7-one] |  | 8.41 |
| CC(Nc1nc2[nH]c(C(F)(F)F)cc(=O)n2n1)c1ccc(-c2ccccc2)cc1 (centres unmarked) [Example 78, 2-[1-(4-phenylphenyl)ethyl-amino]-5-(trifluoromethyl)-4H-[1,2,4]triazolo[1,5-a]pyrimidin-7-one] | 2.45 |  |
| O=c1cc(CNc2ccccc2)[nH]c2nc(NCc3ccc(Cl)cc3Cl)nn12 [Example 79, 5-(Anilinomethyl)-2-[(2,4-dichlorophenyl)methylamino]-4H-[1,2,4]triazolo[1,5-a]pyrimidin-7-one] |  | 4.61 |
| O=c1cc(CNc2ccccc2F)[nH]c2nc(NCc3ccccc3Cl)nn12 [Example 80, 2-[(2-Chlorophenyl)methylamino]-5-1(2-fluoroanilino)methyl1-4H-11,2,41triazolo[1,5-a]pyrimidin-7-one] | 1.92 |  |
| CCCc1cc(=O)n2nc(NCc3cc(-c4ccn(C)n4)ccc3C(F)(F)F)nc2[nH]1 [Example 81, 2-[[5-(1-Methylpyrazol-3-yl)-2-(trifluoromethyl)phenyl]methylamino]-5-propyl-4H-[1,2,4]-triazolo[1,5-a]pyrimidin-7-one] | 1.69 |  |
| CCCc1cc(=O)n2nc(NCc3cc(-c4ccn(C)n4)ccn3)nc2[nH]1 [Example 82, 2-[[4-(1-methylpyrazol-3-yl)-2-pyridyl]methylamino]-5-propyl-4H-[1,2,4]triazolo-[1,5-a]pyrimidin-7-one] | 1.49 |  |
| CCCc1cc(=O)n2nc(NCc3cc(-c4ccn(C)n4)ccc3C)nc2[nH]1 [Example 83, 2-[[2-methyl-5-(1-methyl-pyrazol-3-yl)phenyl]methyl-amino]-5-propyl-4H-[1,2,4]-triazolo[1,5-a]pyrimidin-7-one] |  | 1.24 |
| CCCc1cc(=O)n2nc(NCc3cc(-c4ccn(C)n4)ccc3C#N)nc2[nH]1 [Example 84, 4-(1-methylpyrazol-3-yl)-2-[[(7-oxo-5-propyl-4H-[1,2,4]-triazolo[1,5-a]pyrimidin-2-yl)amino]methyl]benzonitrile] | 1.15 |  |

| SMILES | IC50 [1] [µM] | IC50 [µM] |
| --- | --- | --- |
| CCCc1cc(=O)n2nc(NCc3cc(-c4cccnn4)ccc3Cl)nc2[nH]1 [Example 85, 2-[(2-Chloro-5-pyridazin-3-yl-phenyl)methylamino]-5-propyl-4H-[1,2,4]triazolo[1,5-a]pyrimidin-7-one] | 2.77 |  |
| CCCCc1cc(=O)n2nc(NCc3cc(-c4ccncn4)ccc3Cl)nc2[nH]1 [Example 86, 5-Butyl-2-[(2-chloro-5-pyrimidin-4-yl-phenyl)methylamino]-4H-[1,2,4]triazolo [1,5-a]pyrimidin-7-one] | 0.079 |  |
| CCCc1cc(=O)n2nc(NCc3cc(-n4cncc4C)ccc3Cl)nc2[nH]1 [Example 87, 2-[[2-chloro-5-(5-methylimidazol-1-yl)phenyl]methylamino]-5-propyl-4H-[1,2,4]triazolo[1,5-a]pyrimidin-7-one] |  | 0.64 |
| CCCc1cc(=O)n2nc(NCc3cc(-n4cnc(C)c4)ccc3Cl)nc2[nH]1 [Example 88, 2-[[2-Chloro-5-(4-methylimidazol-1-yl)phenyl]methylamino]-5-propyl-4H-[1,24]triazolo[1,5-a]pyrimidin-7-one] | 0.484 |  |
| CCCc1cc(=O)n2nc(NCc3cc(Nc4nccs4)ccc3Cl)nc2[nH]1 [Example 89, 2-[[2-chloro-5-(thiazol-2-ylamino)phenyl]methylamino]-5-propyl-4H-[1,2,4]triazolo[1,5-a]pyrimidin-7-one] | 0.492 |  |
| CCCc1cc(=O)n2nc(NCc3cc(NC(=O)c4ccon4)ncc3Cl)nc2[nH]1 [Example 90, N-[5-Chloro-4-[[(7-oxo-5-propyl-4H-[1,2,4]triazolo[1,5-a]pyrimidin-2-yl)amino]methyl]-2-pyridyl]isoxazole-3-carboxamide] | 0.807 |  |
| CCCc1cc(=O)n2nc(OCc3cc(-c4cnn(C)c4)ccc3Cl)nc2[nH]1 [Example 91, 2-[[2-Chloro-5-(1-methylpyrazol-4-yl)phenyl]methoxyl]-5-propyl-4H-[1,2,4]triazolo[1,5-a]pyrimidin-7-one] |  | 2.9 |
| CCCc1cc(=O)n2nc(OCc3ccc(-c4ccccc4)cc3Cl)nc2[nH]1 [Example 92, 2-1(2-Chloro-4-phenyl-phenyl)methoxyl-5-propyl-4H-[1,2,4]triazolo[1,5-a]pyrimidin-7-one] | 2.18 |  |
| CCCc1cc(=O)n2nc(NCc3cc(N4CC(OC)C4)ncc3Cl)nc2[nH]1 [Example 93, 2-[[5-Chloro-2-(3-methoxyazetidin-1-yl)-4-pyridyl]methylamino]-5-propyl-4H-[1,2,4]triazolo[1,5-a]pyrimidin-7-one] | 0.65 |  |
| CCCc1cc(=O)n2nc(NCc3cc(N4CCCCC4)ncc3Cl)nc2[nH]1 [Example 94, 2-[[5-chloro-2-(1-piperidyl)-4-pyridyl]methylamino]-5-propyl-4H-[1,2,4]triazolo[1,5-a]pyrimidin-7-one] | 2.55 |  |
| CCCc1cc(=O)n2nc(NCc3cc(N4CCN(C)CC4)ncc3Cl)nc2[nH]1 [Example 95, 2-[[5-chloro-2-(4-methyl-piperazin-1-yl)-4-pyridyl]-methylamino]-5-propyl-4H-[1,2,4]triazolo[1,5-a]pyrim-idin-7-one] | 6.67 |  |
| CCCc1cc(=O)n2nc(NCc3cc(N4CCOCC4)ncc3Cl)nc2[nH]1 [Example 96, 2-[(5-Chloro-2-morpholino-4-pyridyl)methylamino]-5-propyl-4H-[1,2,4]triazolo[1,5-a]pyrimidin-7-one] | 1.16 |  |
| CCCCc1cc(=O)n2nc(NCc3cc(N4CC5(COC5)C4)ncc3Cl)nc2[nH]1 [Example 97, 5-Butyl-2-[[5-chloro-2-(2-oxa-6-azaspiro[3.3]heptan-6-yl)-4-pyridyl]methylamino]-4H-[1,2,4]triazolo[1,5-a]pyrimidin-7-one] |  | 0.128 |
| CCCCc1cc(=O)n2nc(NCc3nc(N4CCOCC4)ncc3Cl)nc2[nH]1 [Example 98, 5-Butyl-2-[(5-chloro-2-morpholino-pyrimidin-4-yl)methylamino]-4H-[1,2,4]triazolo[1,5-a]pyrimidin-7-one] | 0.435 |  |
| CCCc1cc(=O)n2nc(NCc3cnc(N4CCOCC4)cc3Cl)nc2[nH]1 [Example 99, 2-[(4-Chloro-6-morpholino-3-pyridyl)methylamino]-5-propyl-4H-[1,2,4]triazolo[1,5-a]pyrimidin-7-one] | 2.19 |  |
| CCCc1cc(=O)n2nc(NCc3cnc(N4CCN(C)CC4)cc3Cl)nc2[nH]1 [Example 100] |  | 5.22 |
